Blank lines part the entries; values can stand above or below the compound they belong to.
How the values were obtained:
rhCOX-2 = target: T1, rhCOX-2 (Homo sapiens, UniProt P35354); assay: Inhibition of rhCOX-2 (PGF2α by EIA, microsomal human recombinant enzyme); assay type: biochemical; conditions: value in parentheses = IC50; 30 min preincubation, 30 μM arachidonic acid, 37° C., pH 7.8; read-out: % inh of rhCOX-2 (IC50)
T1 construct: made in house; host or cells: Sf9 or CHO cells (microsomal preparation)
T1 sequence (P35354 18-604): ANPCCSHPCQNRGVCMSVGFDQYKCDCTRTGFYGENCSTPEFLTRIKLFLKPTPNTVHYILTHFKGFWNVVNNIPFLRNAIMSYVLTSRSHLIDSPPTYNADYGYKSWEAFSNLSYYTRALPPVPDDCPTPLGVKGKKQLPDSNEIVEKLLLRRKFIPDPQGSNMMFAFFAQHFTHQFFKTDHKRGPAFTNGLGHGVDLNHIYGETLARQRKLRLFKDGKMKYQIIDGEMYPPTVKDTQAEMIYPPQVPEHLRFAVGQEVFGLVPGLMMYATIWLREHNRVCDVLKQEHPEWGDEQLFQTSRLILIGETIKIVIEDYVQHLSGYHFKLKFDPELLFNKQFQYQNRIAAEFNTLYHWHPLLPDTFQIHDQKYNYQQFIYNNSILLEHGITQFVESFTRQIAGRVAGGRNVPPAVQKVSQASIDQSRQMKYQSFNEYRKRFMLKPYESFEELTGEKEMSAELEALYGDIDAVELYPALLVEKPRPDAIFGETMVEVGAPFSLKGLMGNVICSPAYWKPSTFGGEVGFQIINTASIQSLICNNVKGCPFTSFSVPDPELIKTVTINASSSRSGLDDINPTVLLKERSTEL
Method: A representative compound of this invention was evaluated for inhibition of COX-2 and COX-1 enzymes as follows. Human COX-1 and COX-2 cDNAs were cloned from human monocytes, untreated and LPS-treated respectively, by RT-PCR using oligonucleotide primers based on published hCOX-1 and hCOX-2 sequences (Jones et al., J. Biol. Chem., 268, 9049 (1993)). The cDNAs were then transfected into either Sf9 or CHO cells and subsequently converted into a microsomal preparation as described by Glaser et al (Eur. J. Pharmacol. 281, 107-111 (1995)). The microsomal human recombinant enzymes were diluted with buffer (100 mM Tris, pH 7.8 at 37° C.) containing 0.5 mM phenol (964 μl total volume). The enzyme preparations were preincubated with vehicle (DMSO) or compounds in DMSO (1% DMSO in final assay) for 30 min at 37° C. Excess hematin was added 1 min prior to initiation of reaction ([…] final hematin) with 30 μM arachidonic acid (sodium salt). […]
The reaction was incubated for 35 sec (maximum level of PGH2 accumulation as determined from time course studies), and terminated by addition of […] of SnCl2 (1 mg/ml) in 0.1N HCl. PGH2 is quantitatively converted to PGF2a by this reaction (50% efficiency of total conversion). […] Combined ethyl acetate extracts were dried under N2 (g) and redissolved in EIA buffer (2.0 ml), and PGF2α was quantified by EIA.

COX-2 = conditions: cited from earlier work; for inhibition of COX-1 and COX-2, selectivity in words: literature
Alzheimer's disease = conditions: Rogers et al. 1993; cited from earlier work
[1] = Futaki et al. 1993; cited from earlier work

IC50 (rhCOX-2): 27 nM
SMILES: CSc1ccc(/C=C2/C(C)=C(CC(=O)C3=C(O)COC3=O)c3cc(F)ccc32)cc1 [Example 1, (Z)-3-[[5-Fluoro-2-methyl-1-[[4-(methylthio)phenyl]methylene]-1H-inden-3-yl]acetyl]-4-hydroxy-2(5H)-furanone]

SMILES: COc1ccc2c(c1)c(CC(=O)O)c(C)n2C(=O)c1ccc(Cl)cc1 [Indomethacin]
inhibition of COX-1 and COX-2, selectivity in words (COX-2): relatively non-selective inhibitor of COX-1 and COX-2 | treatment of Alzheimer's disease (Alzheimer's disease): useful in the treatment of Alzheimer's disease

SMILES: CS(=O)(=O)Nc1ccc([N+](=O)[O-])cc1OC1CCCCC1 [N-(2-cyclohexyloxy-4-nitrophenyl)methanesulfonamide]
inhibition of COX-1 and COX-2, selectivity in words (COX-2): selective COX-2 inhibitor | antiinflammatory effect [1]: effective antiinflammatory | gastric side effects [1]: lacks gastric side effects

SMILES: CCc1cccc2c3c([nH]c12)C(CC)(CC(=O)O)OCC3 (stereo not shown) [etodolac]
selectivity for inhibition of COX-2 (COX-2; fold, reported by Glaser et al. 1995): tenfold
